{
  "source": "patent US20220091133A1",
  "about": "“METHODS AND ASSAYS FOR IMMUNE PHENOTYPING” (Washington University, priority 2020, published 2022)",
  "key": {"[1]": {"tested_on": "diluted whole blood (T cell IFN-γ production)", "experiment": "Whole blood ELISpot, CD3/CD28-stimulated IFN-γ production (Example 2)", "assay_type": "cell-based, human", "experimental": "Innate and adaptive immune function was assessed using ELISpot analysis by measurement of the production of IFN-γ and TNF-α in ex vivo-stimulated cells following overnight culture. Capture Ab precoated 96-well polyvinylidene difluoride-backed strip plates were used for single color enzymatic assays (ImmunoSpot; Cellular Technology [CTL], Cleveland, Ohio) for detection of human IFN-γ and TNF-α. ELISpot culture procedure was followed as directed using instructions from the ELISpot kit. Samples were run in duplicate for each test condition. Plates were prepared with stimulant and were incubated at 37° C. and 5% CO2 for 30 min prior to plating cells. Identical conditions were prepared for comparison of whole blood assay to PBMC assay, and culture media alone was used as a negative control. Combination of 500 ng/ml of anti-CD3 (clone HIT3a; BioLegend) with 2.5 μg/ml of anti-CD28 (clone CD28.2; BioLegend) Abs were used to induce IFN-γ, and 2.5 ng/ml LPS (from Salmonella abortus equi S-form, ALX-581-009; Enzo Life Sciences, Farmingdale, N.Y.) was used to induce TNF-α wells. Total well volume for all samples was 200 μl. PBMCs were plated into wells in quantities of 2.5×10^4 cells per well for IFN-γ and 2.5×10^3 cells per well for TNF-α. The relevant volume for 5×10^4 leukocytes of diluted whole blood (in culture media) was plated in each well based on complete blood counts performed in the clinical research core laboratory at Washington University. PBMCs and diluted whole blood were costimulated with and without recombinant human IL-7 (Escherichia coli-derived protein, product no. 207-IL; R&D Systems, Minneapolis, Minn.). ELISpot assays were incubated overnight for 18-22 h at 37° C. and 5% CO2 as previously described (29). […]\nSamples were scanned, analyzed, and quality controlled for spot count, spot area, and TWI using a Cellular Technology series 6 ImmunoSpot Universal Analyzer with ImmunoSpot 7.0 professional software (Cellular Technology Analyzers, Shaker Heights, Ohio). […]\nThe number of cytokine-secreting cells present in each ELISpot well is referred to as spot-forming units (SFU) and is reported in two distinct ways. […] The number of lymphocytes in each well was determined based upon the absolute lymphocyte count as measured by the patients' complete blood count. For ELISpot studies involving PBMCs, flow cytometry was performed on the PBMC fraction, and the number of lymphocytes, monocytes, and residual neutrophils were determined. […] Samples were acquired on FACScan (Becton Dickenson, Franklin Lakes, N.J.) with a five-color modification (CyTek Biosciences, Fremont, Calif.) and analyzed using FlowJo 10.2 (FlowJo, Ashland, Oreg.) as previously described (28). […]"}, "[2]": {"tested_on": "PBMCs (T cell IFN-γ production)", "experiment": "ELISpot, CD3/CD28-stimulated IFN-γ in patient PBMCs before and after IL-7 therapy (Example 5)", "assay_type": "in vivo, human", "conditions": "concomitant with initiation of IL-7 treatment"}, "[3]": {"tested_on": "PBMCs (T cell IFN-γ production)", "conditions": "critically ill COVID 19 disease patients, reference 18; cited from earlier work"}, "[4]": {"tested_on": "SARS-CoV-2-specific T cells", "experiment": "ELISpot, IFN-γ response to SARS-CoV-2 spike glycoprotein and nucleocapsid peptide pool (Example 5)", "assay_type": "in vivo, human", "conditions": "before vs after IL-7 therapy"}, "[5]": {"experiment": "Serial plasma cytokines, ProcartaPlex 9-plex Luminex panel (Example 5)", "assay_type": "in vivo, human", "conditions": "plasma of critically ill COVID-19 patient"}},
  "data": [
    {"substance": "IL-7: recombinant human IL-7, immunoadjuvant and potent T cell activator; R&D Systems ex vivo, RevImmune for patients", "values": [
      {"measurement": "increase of absolute lymphocyte count (ALC)", "setting": "SARS-CoV-2; COVID-19 patient after IL-7", "result": "~10", "unit": "fold"},
      {"measurement": "discharged home, day of hospitalization", "setting": "SARS-CoV-2; after IL-7 therapy", "result": 24, "unit": "days"},
      {"measurement": "mechanical ventilation discontinued, day after ICU admission", "setting": "SARS-CoV-2; after initiation of IL-7 therapy", "result": 15, "unit": "days"},
      {"measurement": "effect of IL-7 on IFN-γ SFUs", "setting": "[1]; healthy subjects and CINS patients", "result": "significantly increased"},
      {"measurement": "increase in IFN-γ spot numbers with IL-7", "setting": "[1]; sepsis nonsurvivors", "result": "312%±240"},
      {"measurement": "increase in IFN-γ spot numbers with IL-7", "setting": "[1]; sepsis survivors", "result": "102%±32"},
      {"measurement": "increase in the number of IFN-γ spots when stimulated with IL-7", "setting": "[1]; septic patients overall (n=19), CD3/CD28 + IL-7, p<0.005", "result": "172%±77"},
      {"measurement": "increase in the number of IFN-γ-producing T cells", "setting": "[2]", "result": "multifold increases"},
      {"measurement": "lymphocyte IFN-γ production on ex vivo addition of IL-7 to PBMCs", "setting": "[3]", "result": "doubled"},
      {"measurement": "improvement in the number of SARS-CoV-2 spike protein and nucleocapsid specific T cells", "setting": "[4]", "result": "over 30 fold"},
      {"measurement": "IFN-γ plasma concentration", "setting": "[5]; Post IL-7, Day 12", "result": "Undetectable"},
      {"measurement": "IL-1β plasma concentration", "setting": "[5]; Post IL-7, Day 12", "result": "Undetectable"},
      {"measurement": "IL-2 plasma concentration", "setting": "[5]; Post IL-7, Day 12", "result": "Undetectable"},
      {"measurement": "IL-6 plasma concentration", "setting": "[5]; Post IL-7, Day 12", "result": 30, "unit": "pg/mL"},
      {"measurement": "IL-10 plasma concentration", "setting": "[5]; Post IL-7, Day 12", "result": 2.71, "unit": "pg/mL"},
      {"measurement": "IL-12 plasma concentration", "setting": "[5]; Post IL-7, Day 12", "result": "Undetectable"},
      {"measurement": "IL-17 plasma concentration", "setting": "[5]; Post IL-7, Day 12", "result": 0.14, "unit": "pg/mL"},
      {"measurement": "Tumor necrosis factor-α plasma concentration", "setting": "[5]; Post IL-7, Day 12", "result": "Undetectable"},
      {"measurement": "IFN-γ plasma concentration", "setting": "[5]; Post IL-7, Day 21", "result": "Undetectable"},
      {"measurement": "IL-1β plasma concentration", "setting": "[5]; Post IL-7, Day 21", "result": "Undetectable"},
      {"measurement": "IL-2 plasma concentration", "setting": "[5]; Post IL-7, Day 21", "result": "Undetectable"},
      {"measurement": "IL-6 plasma concentration", "setting": "[5]; Post IL-7, Day 21", "result": 6, "unit": "pg/mL"},
      {"measurement": "IL-10 plasma concentration", "setting": "[5]; Post IL-7, Day 21", "result": 0.83, "unit": "pg/mL"},
      {"measurement": "IL-12 plasma concentration", "setting": "[5]; Post IL-7, Day 21", "result": "Undetectable"},
      {"measurement": "IL-17 plasma concentration", "setting": "[5]; Post IL-7, Day 21", "result": 0.12, "unit": "pg/mL"},
      {"measurement": "Tumor necrosis factor-α plasma concentration", "setting": "[5]; Post IL-7, Day 21", "result": "Undetectable"}
    ]}
  ]
}
